Earlier results in patent US20100260859A1 (ELAN PHARMA INTERNATIONAL LIMITED, priority 2009, published 2010).

SMILES: CN1CCN(C2=Nc3cc(Cl)ccc3Nc3ccccc32)CC1 [Clozapine, 8-chloro-11-(4-methylpiperazin-1-yl)-5H-dibenzo[b,e][1,4]diazepine]
- established intrinsic solubility of clozapine in water: 16 µg/mL
- solubility in water (in words): very slightly soluble in water
